Experiments:
[1] = tested on: NIH-3T3 TrkB-expressing cell line; assay: CellTox Green cytotoxicity assay in NIH-3T3 cells stable transfected with TrkB under serum deprivation; format: cell-based; settings: compound 1 μM, 24 h, after 24 h serum starvation; BDNF 500 ng/mL as control
Experimental: (§1) We tested compounds on three cellular systems, primary cortical astrocytes from 2-day-old mice (as a natively TrkB-expressing neuronal population), and NIH-3T3 fibroblasts stable transfected with TrkB and NIH-3T3 naïve cells. Cells were grown with high-glucose DMEM medium supplemented with 10% fetal bovine serum (FBS), 100 μg/mL streptomycin, and 100 units/mL penicillin at 37°C in a humidified 5% CO2 atmosphere. Phosphorylation results presented here are in primary astrocytes, and cell toxicity assay results are in NIH-3T3 stable transfected cells with TrkB.
NIH-3T3 stable transfected cells with TrkB were plated in 96-well plates at a density of 10,000 cells/well, before carrying out serum starvation for 24 h. Cells were then treated for 24 h with either BDNF at 500 ng/mL (control) or the compounds at 1 μM.
(§2) For the cell toxicity assay, we used CellTox™ Green Dye (2,000 × , Promega) for the visualization of dead cells and Hoechst 33,342 solution (10,000 × ) for total cells. A ZEISS Axio Vert.A1 microscope was used for image capture, and the ImageJ software (https://imagej.nih.gov/ij/) was used for analysis. The number of CellTox positive cells was normalized against the total number of cells observed in each image.
The NIH-3T3 TrkB cell line, which is stable and transfected to specifically express the TrkB receptor, was used for the screening of the new compounds for their ability to protect cells from serum deprivation-induced apoptosis through the activation of the TrkB receptor. Cell death was induced by serum deprivation for 24 h and then BDNF (500 ng/mL), the native neurotrophin ligand of the TrkB receptor, or compounds ENT-A007, ENT-A009, ENTA025, ENT-A026, ENT-A033, ENT-A034, ENT-A035, ENT-A036, ENT-A037, ENT-A046, ENT-A047, ENT-A055, and ENT-A056 (1 μM) were added to the media for 24 h.

TrkB = target: T1, TrkB (Mus musculus, UniProt P15209); assay: TrkB phosphorylation assay in primary astrocytes (Western blot); format: cell-based; settings: compound 1 μM, 20 min, after 6 h serum starvation, BDNF 500 ng/mL as control
T1 construct: primary cortical astrocytes from 2-day-old mice (as a natively TrkB-expressing neuronal population); endogenous in cells; host or cells: primary cortical astrocytes from C57B/6 mouse pups (P2)
Experimental: as §1
Cells were plated in 12 well plates, at a density of 100,000 cells per well, with 6 h of serum deprivation carried out on the following day. To assess the effect of compounds on TrkB phosphorylation, 20-min treatments were applied, using either BDNF at 500 ng/mL (Peprotech 450-02) (positive control) or compounds at 1 μM.
Cell lysis for 10 min was carried out on ice using the Pierce IP Lysis Buffer by Thermo Scientific and a phospho-protease inhibitor cocktail by Millipore. After adding loading buffer (5 × Laemni), 25 μg from each protein sample were incubated for 5 min at 95°C and subjected to SDS-PAGE. Proteins were transferred to a nitrocellulose membrane at 350 mA for 2 h. Membrane blocking was performed using 5% bovine serum albumin (BSA) at room temperature for 1 h, before adding the primary antibodies to the blocking solution at 4°C overnight. HRP-conjugated secondary antibodies were used for the detection of chemiluminescence with ECL solution. Primary antibodies: Phospho-TrkB (Tyr816) Millipore # ABN1381, and Anti-TrkB Abcam #ab33655.
Mixed glial cultures were isolated from the cortex of C57B/6 pups at post-natal day 2 (P2). Cells were plated in a medium containing high-glucose DMEM, 200 U/mL penicillin, 200 μg/mL streptomycin, and 10% fetal bovine serum (FBS). When cells reach 100% confluency (7–8 days), the anti-mitotic agent Ara-C was added in the media at a final concentration of 10 μM, for 3 to 4 days to target the highly proliferative microglial cells. Ara-C was removed, and primary astrocytes (97% purity) were cultured at 5% CO2 and 37°C.
Cells were plated at 70–80% confluency. The next day, they were deprived of serum for 6 h and subsequently treated with 500 ng/mL BDNF or 1 μM of compounds for 20 min. Cells were then lysed in Pierce™ IP Lysis Buffer (87788, Thermo Fischer Scientific, Rockford, USA), containing proteases (539138, Calbiochem, Darmstadt, Germany), and phosphatase inhibitors (524629, Calbiochem, Darmstadt, Germany). Lysates were then suspended in an SDS loading buffer and subjected to Western blot against phosphorylated TrkB (1:1,000, ABN1381, Sigma-Aldrich, St. Louis, MO, USA) and total TrkB (1:1,000, 07-225-I, Sigma-Aldrich, St. Louis, MO, USA).

CYP2C9 = target: T2, CYP2C9 (Homo sapiens, UniProt P11712); assay: Isozyme-specific CYP450 inhibition, CYP2C9; format: in vitro ADME; settings: 1 μM, 60 min, recombinant human CYP450 (Baculosomes)
T2 construct: purchased Thermo Fisher Scientific; host or cells: Baculosomes
Experimental: Human cytochrome P450 (CYP450) isoenzymes were expressed in Baculosomes®, purchased from Thermo Fisher Scientific (Waltham, MA, USA). All reagents were handled and prepared according to the manufacturer's protocol. Test compounds were assessed at 1 μM for their effects on CYP1A2, CYP2A6, CYP2C9, CYP2C19, CYP2D6, and CYP3A4. Approximately 1 μM was selected based on our ADMET standard operating procedures and protocols also published previously (Rogdakis et al., [2022]; Yilmaz et al., [2022]). CYP450-enzymatic activity was determined based on the kinetic model for each CYP450 isoform (Cohen et al., [2003]; Veith et al., [2009]). Reactions took place in triplicates at 20°C. For this, NADP^+ (10 mM in 100 mM potassium phosphate, pH 8.0) was converted into NADPH by the regeneration system present (glucose-6-phosphate at 333 mM and glucose-6-phosphate-dehydrogenase at 30 U/mL in 100 mM potassium phosphate, pH 8.0). Following the addition of the fluorescent substrate, signal monitoring over time took place immediately (<2 min) at suitable excitation and emission wavelengths (Agilent BioTek Lionheart FX). CYP450 inhibition (%) was determined based on the reaction rates (fluorescence intensity changes per unit time). In total, n = 60 measurements […] were acquired (t = 60 min).
% Inhibition=(1-X/A)×100%
X is the rate observed in the presence of the test compound.
A is the rate observed in the presence of the negative (solvent, DMSO) control.

PC12 cells = assay: CellTox assay, survival of PC12 cells under serum deprivation; format: cell-based; settings: compound 500 nM, 24 h, after 4 h serum starvation; NGF 100 ng/mL as control (Figure 9)
Experimental: PC12 cells were obtained from LGC Promochem and cultured under specified conditions. Cells were grown in DMEM medium (Thermo Fischer Scientific, cat# 10566016) containing 10% horse serum (Thermo Fischer Scientific, cat# 16050122), 5% fetal bovine serum (Thermo Fischer Scientific, cat# 10270106), 100 units/mL penicillin, and 0.1 mg/mL streptomycin (Thermo Fischer Scientific, cat# 15140122) at 5% CO2 and 37°C. Cells were used between passages 5 and 20.
CellTox assay (G8742, Promega, Leiden, Belgium) was used to assess the survival of PC12 cells under serum deprivation conditions. PC12 cells were plated in 96-well plates, starved from serum for 4 h, and subsequently treated with NGF (100 ng/mL) or compound (500 nM) for 24 h. CellTox assay reagents and Hoescht (1:10,000, H3570, Invitrogen, Massachusetts, USA) were then added to each well for 30 min, and then, cells were imaged with a Zeiss AXIO Vert A1 fluorescent microscope. CellTox positive cells were normalized to the total number of cells for each image.
Initially, we tested compounds ENT-A002, ENT-A007, ENT-A009, ENTA025, ENT-A026, ENT-A033, ENT-A034, ENT-A035, ENT-A036, ENT-A037, ENT-A046, ENT-A047, ENT-A055, and ENT-A056 for their ability to protect PC12 cells from serum deprivation-induced cell death as well as for their ability to activate TrkA downstream pro-survival signaling kinases Akt and Erk1/2 (Figures 9A–C). We opted to employ PC12 cells, which express receptors TrkA and p75 and have been routinely used for investigating NGF-TrkA signaling. PC12 cells were subjected to a period of nutrient deprivation (without fetal bovine serum and horse serum in their culture medium) for 4 h. Following this, NGF (100 ng/mL) or one of the compounds (500 nM or 1 μM) was administered and allowed to interact with the cells for 24 h. Following that, CellTox and Hoescht dyes were added and cells were imaged to assess cell death. Control cases involved cells cultured in full medium (serum), cells under starvation conditions (serum-free), and cells under starvation conditions treated with DMSO (SF+DMSO).

NIH3T3 naive cells = assay: CellTox assay in NIH3T3 naive cells under serum deprivation; format: cell-based; settings: compound 1 μM or BDNF 500 ng/mL, 24 h, after 18 h nutrient deprivation
Experimental: as §1, §2
These cells were treated with the compounds, or BDNF, for 24 h under starvation conditions. Control conditions included cells cultured with serum, serum-free conditions, and serum-free conditions supplemented with DMSO. The cells were subjected to a period of 18 h of nutrient deprivation before the treatments. […] Therefore, we infer that the involvement of the TrkB receptor is indeed essential for the cell-protective effects of ENT-A076, ENT-A087, and ENT-A088 (Figures 14A, B).

[2] = Metabolic stability in pooled human liver microsomes; format: in vitro ADME; settings: 1 μM; for residual of time zero: pooled human liver microsomes 0.5 mg/mL, t = 60 min, NADPH; for parent structure loss (depletion) class: pooled human liver microsomes, 60 min
Experimental: For metabolic stability assessment, pooled human liver microsomes were employed at 0.5 mg/mL. Incubation conditions were optimized to ensure linear metabolite formation with respect to protein concentration and reaction time. All test compounds were assessed at 1 μM based on our ADMET standard operating procedures and protocols, also published previously (1 μM was selected based on our ADMET standard operating procedures and protocols also published previously) (Rogdakis et al., [2022]; Yilmaz et al., [2022]). Approximately 1 mM of NADPH served as a cofactor. Reactions took place in triplicates at 37°C. Negative and positive controls (low vs. rapid clearance) were included for low vs. rapid clearance. After 60 min, reactions were terminated.
Parent structure loss is classified as very slow (<5%), slow (5–19%), moderate (20–50%), fast (50–80%), or very fast (>80%). Such categories have been defined according to set criteria, namely, high metabolism (t1/2 value of <30 min), moderate metabolism (30 min <t1/2 value of <60 min), and low metabolism (t1/2 value of >60 min) (EMA, [2012], [2013]; FDA, [2020]).

T1 sequence (P15209 32-821): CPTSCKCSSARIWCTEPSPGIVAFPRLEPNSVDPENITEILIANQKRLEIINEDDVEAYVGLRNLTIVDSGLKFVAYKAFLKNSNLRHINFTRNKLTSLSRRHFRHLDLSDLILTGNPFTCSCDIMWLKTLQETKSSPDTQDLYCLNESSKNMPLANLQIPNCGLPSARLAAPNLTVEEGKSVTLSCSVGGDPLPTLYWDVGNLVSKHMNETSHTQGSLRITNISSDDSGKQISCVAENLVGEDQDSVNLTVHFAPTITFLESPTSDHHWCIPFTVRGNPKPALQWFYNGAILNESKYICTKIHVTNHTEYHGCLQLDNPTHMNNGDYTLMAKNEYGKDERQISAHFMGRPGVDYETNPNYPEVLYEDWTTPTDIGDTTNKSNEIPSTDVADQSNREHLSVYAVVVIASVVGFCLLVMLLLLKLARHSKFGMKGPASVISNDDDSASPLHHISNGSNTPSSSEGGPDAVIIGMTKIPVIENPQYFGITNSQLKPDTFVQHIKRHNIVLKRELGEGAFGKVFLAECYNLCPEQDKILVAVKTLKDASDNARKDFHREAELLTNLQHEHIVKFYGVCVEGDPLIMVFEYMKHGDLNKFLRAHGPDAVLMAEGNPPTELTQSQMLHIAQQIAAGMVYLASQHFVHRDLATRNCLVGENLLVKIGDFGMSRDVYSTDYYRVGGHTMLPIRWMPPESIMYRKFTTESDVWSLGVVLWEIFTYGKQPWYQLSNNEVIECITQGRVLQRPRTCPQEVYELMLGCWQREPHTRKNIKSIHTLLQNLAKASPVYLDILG
T2 sequence (P11712 whole entry): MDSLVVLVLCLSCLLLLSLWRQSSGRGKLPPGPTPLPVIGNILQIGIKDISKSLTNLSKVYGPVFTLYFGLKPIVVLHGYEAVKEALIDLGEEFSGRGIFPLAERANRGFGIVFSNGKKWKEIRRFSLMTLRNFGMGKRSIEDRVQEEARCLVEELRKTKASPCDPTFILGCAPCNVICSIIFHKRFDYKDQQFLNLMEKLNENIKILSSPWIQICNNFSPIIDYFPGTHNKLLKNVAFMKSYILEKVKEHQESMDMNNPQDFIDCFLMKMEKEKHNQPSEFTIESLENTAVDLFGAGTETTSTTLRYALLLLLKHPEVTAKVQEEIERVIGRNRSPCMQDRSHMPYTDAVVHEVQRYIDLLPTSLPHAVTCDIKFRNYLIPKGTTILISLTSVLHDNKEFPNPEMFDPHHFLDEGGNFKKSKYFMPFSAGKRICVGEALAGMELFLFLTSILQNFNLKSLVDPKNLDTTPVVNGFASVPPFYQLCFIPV

Molecule | protection of NIH-3T3-TrkB cells from serum deprivation-induced cell death (CellTox) [1] | phosphorylation levels of the TrkB receptor (TrkB) | inhibition for CYP2C9 (CYP2C9) | protection of PC12 cells from serum deprivation-induced cell death (CellTox) (PC12 cells) | rescue of NIH3T3 naive cells (no neurotrophin receptors) from serum deprivation-induced cell death (CellTox) (NIH3T3 naive cells) | residual of time zero [2] [%] | parent structure loss (depletion) class [2]
CCOC(=O)C=CC1=CCC2(CCC3C4CC=C5CC(O)CCC5(C)C4CCC32C)OC1 [ENT-A007, Ethyl (E)-(3S,17R)-3-hydroxy-dihydrospiro[5-androstene-17,2′-pyran]-5′-yl-acrylate] | significantly reduce cell death levels compared to the serum-free control, comparable to the BDNF action | only ENT-A009 and ENT-A055 successfully increased phosphorylation levels of the TrkB receptor | moderate-to-strong inhibition | – | – | – | –
CN(C)Cc1cn(CC2=CC[C@@]3(CC[C@H]4[C@@H]5CC=C6C[C@@H](O)CC[C@]6(C)[C@H]5CC[C@@]43C)OC2)nn1 [ENT-A046, (3S,17R)-5′-[(4-((dimethylamino)methyl)-1H-1,2,3-triazol-1-yl)methyl]-3′,6′-dihydrospiro[5-androstene-17,2′-pyran]-3-ol] | significantly reduce cell death levels compared to the serum-free control, comparable to the BDNF action | only ENT-A009 and ENT-A055 successfully increased phosphorylation levels of the TrkB receptor | – | without showing any antiapoptotic activity in PC12 cells | – | – | –
C[C@]12CC[C@H](O)CC1=CC[C@@H]1[C@@H]2CC[C@@]2(C)[C@H]1CCC21CC(=O)C1 [ENT-A076, (3S)-3-hydroxy-spiro[5-androsten-17-cyclobutan]-3′-one] | demonstrated the ability to promote cell survival during serum starvation as well as BDNF | – | – | – | neither the compounds nor BDNF were able to rescue the cells from cell death | 95 | slow (slow (5–19%))
COC(=O)C=C1CC2(CC[C@H]3[C@@H]4CC=C5C[C@@H](O)CC[C@]5(C)[C@H]4CC[C@@]32C)C1 (stereo partly drawn) [ENT-A087] | demonstrated the ability to promote cell survival during serum starvation as well as BDNF | – | – | – | neither the compounds nor BDNF were able to rescue the cells from cell death | > 95 | very slow (very slow (<5%))
brain-derived neurotrophic factor (protein, UniProt P23560 19-247, looked up, native neurotrophin ligand of the TrkB receptor, positive control at 500 ng/mL) Neurotrophic factor BDNF …: APMKEANIRGQGGLAYPGVRTHGTLESVNGPKAGSRGLTSLADTFEHVIEELLDEDQKVRPNEENNKDADLYTSRVMLSSQVPLEPPLLFLLEEYKNYLDAANMSMRVRRHSDPARRGELSVCDSISEWVTAADKKTAVDMSGGTVTVLEKVPVSKGQLKQYFYETKCNPMGYTKEGCRGIDKRHWNSQCRTTQSYVRALTMDSKKRIGWRFIRIDTSCVCTLTIKRGR | – | – | – | – | neither the compounds nor BDNF were able to rescue the cells from cell death | – | –

From PMC10568017, “A quest for the stereo-electronic requirements for selective agonism for the neurotrophin receptors TrkA and TrkB in 17-spirocyclic-dehydroepiandrosterone derivatives” (Frontiers in Molecular Neuroscience, 2023)
